From patent US20040033517A1, “Compositions and methods relating to endothelial cell signaling using the protease activated receptor (PAR1)” (priority 2002, published 2004)
Where two headings read alike, the source gives them in different places. Ends that are not written are not given here.

Test system: human umbilical vein endothelial cells HUVEC-C
Type: cell-based
From the text: Microarray Analysis. […] Total RNA was isolated followed by reverse transcription. Purified double stranded cDNA was in vitro transcribed in the presence of biotinylated dUTP and dCTP, fragmented cRNA was hybridized to the HG-U95Av2 array (Affymetrix, Santa Clara, Calif.), followed by staining with streptavidin-phycoerythrin. Arrays were scanned and analyzed using GeneChip3.1 software. […] An average fold-induction for the three independent experiments was obtained by calculating the means of the logarithm of the individual fold-increases for each agonist.

[1] = HUVEC-C, 90 min, genes represented in FIG. 2 A-C
[2] = HUVEC-C, 90 min, higher variability, PAR1 enhanced (<1.3 fold with PAR2 agonist)
[3] = HUVEC-C, 90 min, higher variability, PAR2 enhanced (<1.3 fold with PAR1 agonist)
[4] = HUVEC-C, 90 min, higher variability, genes not induced by APC (<1.3 fold with APC)

SLIGRL [PAR2, SLIGRL]
0.9 fold: Average Induction, A1953789 wx69d10.x1 Homo sapiens cDNA [2] | Average Induction, U87460 Human putative endothelin receptor type B-like protein mRNA [2]
1.0 fold: Average Induction, M26683 Human interferon gamma treatment inducible mRNA [1] | Average Induction, AL035297 H.sapiens gene from PAC 747L4 [2]
5.4 fold: Average Induction, L13740 Human TR3 orphan receptor mRNA (HUVEC-C, 90 min, genes represented in FIG. 2 A-C, first probe set) | Average Induction, L13740 Human TR3 orphan receptor mRNA (HUVEC-C, 90 min, genes represented in FIG. 2 A-C, second probe set)
2.7 fold: Average Induction, J02931 Human placental tissue factor (two forms) mRNA [1] | Average Induction, M28211 Homo sapiens GTP-binding protein (RAB4) mRNA [1]
1.38 fold: Average fold induction, NAB1 AF045451 NGFIA-BINDING PROTEIN
1.9 fold: Average Induction, M31516 Human decay-accelerating factor mRNA [1] | Average Induction, U43142 Human vascular endothelial growth factor related protein VRP [1] | Average Induction, Z48054 H.sapiens mRNA for peroxisomal targeting signal 1 (SKL type) receptor [1]
1.41 fold: Average fold induction, BIRC3 U45878 HUMAN INHIBITOR OF APOPTOSIS PROTEIN (IAP) 1
3.7 fold: Average Induction, M60721 Human homeobox gene [1]
2.2 fold: Average Induction, X89066 H.sapiens mRNA for TRPC1 protein [1]
2.3 fold: Average Induction, A1288757 qm11h01.x1 Homo sapiens cDNA [1]
2.6 fold: Average Induction, AL031432 Human DNA sequence from clone 465N24 on chromosome 1p35.1-36.13. [1] | Average Induction, L19871 Human activating transcription factor 3 (ATF3) [1] | Average Induction, U75697 Human transcription regulator RPD3-2B mRNA [1]
1.1 fold: Average Induction, M28225 Human JE gene encoding a monocyte secretory protein [= MCP-1] [1] | Average Induction, U59863 Human TRAF-interacting protein I-TRAF mRNA [1] | Average Induction, A1186701 qe82d12.x1 Homo sapiens cDNA [2] | Average Induction, AF024710 Homo sapiens vascular endothelial growth factor (VEGF) [2] | Average Induction, U35735 Human RACH1 (RACH1) mRNA [2]
2.0 fold: Average Induction, A8022718 Homo sapiens m.RNA for DEPP (decidual protein induced by progesterone) [1] | Average Induction, AB014569 Homo sapiens mRNA for K1AA0669 protein [1] | Average Induction, AL023584 Human DNA sequence from clone 67K17 on chromosome 6q24.1-24.3. [1] | Average Induction, J04076 Human early growth response 2 protein (EGR2) mRNA [1] | Average Induction, L05072 Homo sapiens interferon regulatory factor 1 gene [1] | Average Induction, U08015 Human NF-ATc mRNA [1] | Average Induction, A1038821 ox96d03.x1 Homo sapiens cDNA [3] | Average Induction, AB028069 Homo sapiens mRNA for activator of S phase Kinase [4] | Average Induction, U85267 Homo sapiens down syndrome candidate region 1 (DSCR1) gene [4]
2.8 fold: Average Induction, M29039 Human transactivator (jun-B) gene [1] | Average Induction, X68277 H.sapiens CL 100 mRNA for protein tyrosine phosphatase [1]
3.2 fold: Average Induction, M22489/FEATURE Human bone morphogenetic protein 2A (BMP-2A) [1]
1.6 fold: Average Induction, AF017786 Homo sapiens phosphatidic acid phosphohydrolase homolog (Dri42) [1] | Average Induction, AJ005821 Homo sapiens mRNA for X-like 1 protein [1] | Average Induction, AL050078 Homo sapiens mRNA; cDNA DKFZp566G0746 [1] | Average Induction, M36820 Human cytokine (GRO-beta) mRNA [1] | Average Induction, U07802 Human Tis1 1d gene [1] | Average Induction, W26851 17b12 Homo sapiens cDNA [3] | Average Induction, Y13115 Homo sapiens mRNA for serine/threonine protein kinase SAK [3] | Average Induction, D38537 Human mRNA for protoporphyrinogen oxidase [4]
2.9 fold: Average Induction, Cluster Incl M22489 Human bone morphogenetic protein 2A (BMP-2A) [1]
3.0 fold: Average Induction, X63741 H.sapiens pilot mRNA [1]
3.4 fold: Average Induction, Cluster Incl U12767 Human mitogen induced nuclear orphan receptor (MINOR) [1] | Average Induction, M92843 H.sapiens zinc finger transcriptional regulator mRNA [1]
1.3 fold: Average Induction, AB004066 Homo sapiens mRNA for DEC1 [1] | Average Induction, AF022375 Homo sapiens vascular endothelial growth factor mRNA [1] | Average Induction, AF054182 Homo sapiens mitochondrial processing peptidase beta-subunit mRNA [1] | Average Induction, AF078077 Homo sapiens growth arrest and DNA-damage-inducible protein GADD45beta [1] | Average Induction, D50917 Human mRNA for KIAA0127 gene [1] | Average Induction, M59465 Human tumor necrosis factor alpha inducible protein A20 mRNA [1] | Average Induction, U04636 Human cyclooxygenase-2 (hCox-2) gene [1] | Average Induction, U81607 Homo sapiens gravin mRNA [1] | Average Induction, AL049354 Homo sapiens mRNA; cDNA DKFZp566E183 [3] | Average Induction, L38696 Homo sapiens autoantigen p542 mRNA [3] | Average Induction, M83667 Human NF-IL6-beta protein [4] | Average Induction, U78082 Human RNA polymerase transcriptional regulation mediator (h-MED6) mRNA [4]
2.1 fold: Average Induction, M30474 Human kidney gamma-glutamyl transpeptidase type II mRNA [1] | Average Induction, X94216 H.sapiens mRNA for VEGF-C protein [1]
1.8 fold: Average Induction, AF039843 Homo sapiens Sprouty 2 (SPRY2) mRNA [1] | Average Induction, AF068197 Homo sapiens BCE-1 mRNA [1] | Average Induction, X51345 Human jun-B mRNA for JUN-B protein [1]
3.3 fold: Average Induction, U12767/FEATURE Human mitogen induced nuclear orphan receptor (MINOR) [1] | Average Induction, U15932 Human dual-specificity protein phosphatase [1] | Average Induction, X75918 H.sapiens mRNA for NOT [1]
1.2 fold: Average Induction, L43821 Homo sapiens enhancer of filamentation (HEF1) mRNA [1] | Average Induction, S81914 IEX-1=radiation-inducible immediate-early gene [1] | Average Induction, W27545 32c4 Homo sapiens cDNA [1] | Average Induction, M22299 Human T-plastin polypeptide mRNA [2]
1.5 fold: Average Induction, AL096858 Novel human gene mapping to chomosome 1 [1] | Average Induction, D86181 Homo sapiens DNA for galactocerebrosidase [1] | Average Induction, J04111 Human c-jun proto oncogene (JUN) [1] | Average Induction, U27655 Human RGP3 mRNA [3] | Average Induction, U53831 Homo sapiens interferon regulatory factor 7B [3] | Average Induction, U58334 Human Bcl2, p53 binding protein Bbp/53BP2 (BBP/53BP2) mRNA [3]
1.7 fold: Average Induction, D15050 Human mRNA for transcription factor AREB6 [1] | Average Induction, U79259 Human clone 23945 mRNA [1] | Average Induction, Y00630 Human mRNA for Arg-Serpin (plasminogen activator-inhibitor 2, PAI-2) [1] | Average Induction, Z25821 H.sapiens gene for mitochondrial dodecenoyl-CoA delta-isomerase [1] | Average Induction, U65093 Human msg1-related gene 1 (mrg1) mRNA [3] | Average Induction, Z25821 H.sapiens gene for mitochondrial dodecenoyl-CoA delta-isomerase [3]
3.9 fold: Average Induction, M60278 Human heparin-binding EGF-like growth factor mRNA [1]
1.4 fold: Average Induction, A1670788 tz10c02.x1 Homo sapiens cDNA [1] | Average Induction, A1985272 ws06b05.x1 Homo sapiens cDNA [1] | Average Induction, AF045451 Homo sapiens transcriptional regulatory protein p54 [1] | Average Induction, AF050110 Homo sapiens TGFb inducible early protein and early growth response protein alpha genes [1] | Average Induction, D78579 Homo sapiens mRNA for neuron derived orphan receptor [1] | Average Induction, Guanine Nucleotide Exchange Factor 2 [1] | Average Induction, M69043 Homo sapiens MAD-3 mRNA encoding 1kB-like activity [1] | Average Induction, S81439 EGR alpha=early growth response gene alpha [1] | Average Induction, U25997 Homo sapiens stanniocalcin precursor (STC) mRNA [1] | Average Induction, AC004475 Homo sapiens chromosome 19, cosmid F23858 [3]
